Earlier results as cited in PMC9516332 (Frontiers in Oncology, 2022).
Where two headings read alike, the source gives them in different places.

Key:
Settings in all cases: cited from earlier work
[1] = molecular target: panel of 255 wild-type kinases (Homo sapiens, UniProt Q06187)
[2] = molecular target: panel of 255 wild-type kinases (Homo sapiens, UniProt P24941)
[3] = molecular target: panel of 255 wild-type kinases (Homo sapiens, UniProt Q8N4C8)
[4] = molecular target: panel of 255 wild-type kinases (Homo sapiens, UniProt Q04912)
[5] = molecular target: panel of 255 wild-type kinases (Homo sapiens, UniProt Q9HCP0)
[6] = molecular target: panel of 255 wild-type kinases (Homo sapiens, UniProt P49760)
[7] = molecular target: panel of 255 wild-type kinases (Homo sapiens, UniProt Q96GD4)
[8] = molecular target: panel of 255 wild-type kinases (Homo sapiens, UniProt P06493)
[9] = molecular target: panel of 255 wild-type kinases (Homo sapiens, UniProt Q13153)
[10] = molecular target: panel of 255 wild-type kinases (Homo sapiens, UniProt Q13131)
[11] = molecular target: T1, panel of 255 wild-type kinases (Homo sapiens, UniProt Q06418)
T1 sequence (Q06418 41-890): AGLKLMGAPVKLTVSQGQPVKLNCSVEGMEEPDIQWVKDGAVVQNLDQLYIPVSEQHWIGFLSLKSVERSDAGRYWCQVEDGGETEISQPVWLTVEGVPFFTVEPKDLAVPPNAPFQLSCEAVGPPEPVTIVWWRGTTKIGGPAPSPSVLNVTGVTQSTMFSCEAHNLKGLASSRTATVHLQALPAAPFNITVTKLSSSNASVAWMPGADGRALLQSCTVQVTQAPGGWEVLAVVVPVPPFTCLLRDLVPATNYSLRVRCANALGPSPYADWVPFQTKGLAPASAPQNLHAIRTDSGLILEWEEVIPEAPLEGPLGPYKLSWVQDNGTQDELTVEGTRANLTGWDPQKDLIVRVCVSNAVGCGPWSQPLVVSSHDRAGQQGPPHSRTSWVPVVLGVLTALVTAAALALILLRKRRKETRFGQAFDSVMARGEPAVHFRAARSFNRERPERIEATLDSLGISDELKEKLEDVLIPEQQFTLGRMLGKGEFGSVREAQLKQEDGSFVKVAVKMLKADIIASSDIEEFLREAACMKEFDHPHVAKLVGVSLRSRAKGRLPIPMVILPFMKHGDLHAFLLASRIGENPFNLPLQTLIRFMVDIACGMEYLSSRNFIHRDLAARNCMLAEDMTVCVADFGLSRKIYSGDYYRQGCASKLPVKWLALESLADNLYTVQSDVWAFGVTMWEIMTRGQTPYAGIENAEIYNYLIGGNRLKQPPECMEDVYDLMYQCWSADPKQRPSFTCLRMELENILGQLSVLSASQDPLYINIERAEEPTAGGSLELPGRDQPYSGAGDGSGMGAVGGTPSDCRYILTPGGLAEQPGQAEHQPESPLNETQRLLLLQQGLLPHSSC

[12] = molecular target: panel of 255 wild-type kinases (Homo sapiens, UniProt P07948)
[13] = molecular target: panel of 255 wild-type kinases (Homo sapiens, UniProt P17252)
[14] = BTK kinase assay, 1 µmol/L single concentration, ref DOI: 10.1371/journal.pone.0092146
[15] = CDK2/CycA2 kinase assay, 1 µmol/L single concentration, ref DOI: 10.1371/journal.pone.0092146
[16] = CDK2/CycE1 kinase assay, 1 µmol/L single concentration, ref DOI: 10.1371/journal.pone.0092146
[17] = MINK, 1 µmol/L single concentration, ref DOI: 10.1371/journal.pone.0092146
[18] = kinase RON, 1 µmol/L single concentration, ref DOI: 10.1371/journal.pone.0092146
[19] = kinase CK1γ1, 1 µmol/L single concentration, ref DOI: 10.1371/journal.pone.0092146
[20] = kinase CLK2, 1 µmol/L single concentration, ref DOI: 10.1371/journal.pone.0092146
[21] = AurB kinase assay, 1 µmol/L single concentration, ref DOI: 10.1371/journal.pone.0092146
[22] = CDC2/CycB1 kinase assay, 1 µmol/L single concentration, ref DOI: 10.1371/journal.pone.0092146
[23] = PAK1, 1 µmol/L single concentration, ref DOI: 10.1371/journal.pone.0092146
[24] = AMPKα1/β1/γ1 kinase assay, 1 µmol/L single concentration, ref DOI: 10.1371/journal.pone.0092146
[25] = kinase TYRO3, 1 µmol/L single concentration, ref DOI: 10.1371/journal.pone.0092146
[26] = kinase LYNa, 1 µmol/L single concentration, ref DOI: 10.1371/journal.pone.0092146
[27] = kinase PKCα, 1 µmol/L single concentration, ref DOI: 10.1371/journal.pone.0092146

Structure (SMILES)	%-inhibition BTK [1, 14] [%]	%-inhibition CDK2/CycA2 [2, 15] [%]	%-inhibition CDK2/CycE1 [2, 16] [%]	%-inhibition, MINK [3, 17] [%]	%-inhibition at 1 µmol/L, RON [4, 18] [%]	%-inhibition at 1 µmol/L, CK1γ1 [5, 19] [%]	%-inhibition at 1 µmol/L, CLK2 [6, 20] [%]	%-inhibition AurB [7, 21] [%]	%-inhibition CDC2/CycB1 [8, 22] [%]	%-inhibition, PAK1 [9, 23] [%]	%-inhibition AMPKα1/β1/γ1 [10, 24] [%]	%-inhibition at 1 µmol/L, TYRO3 [11, 25] [%]	%-inhibition at 1 µmol/L, LYNa [12, 26] [%]	%-inhibition at 1 µmol/L, PKCα [13, 27] [%]	other results
COc1cc(N2CCC(N3CCN(C)CC3)CC2)ccc1Nc1ncc(Cl)c(Nc2ccccc2P(C)(C)=O)n1 [brigatinib]	–	–	–	–	–	–	–	–	–	–	–	–	–	–	%-inhibition BTK [1]: 54%; %-inhibition CDK2/CycA2 [2]: 53%; %-inhibition CDK2/CycE1 [2]: 30%; %-inhibition, MINK [3]: 6%; %-inhibition at 1 µmol/L, RON [4]: 18%; %-inhibition at 1 µmol/L, CK1γ1 [5]: 1.13%; %-inhibition at 1 µmol/L, CLK2 [6]: 91%; %-inhibition AurB [7]: 46%; %-inhibition CDC2/CycB1 [8]: 61%; %-inhibition, PAK1 [9]: 4.27%; %-inhibition AMPKα1/β1/γ1 [10]: 80%; %-inhibition at 1 µmol/L, TYRO3 [11]: 27%; %-inhibition at 1 µmol/L, LYNa [12]: 51%; %-inhibition at 1 µmol/L, PKCα [13]: 15%
CCCS(=O)(=O)Nc1ccc(F)c(C(=O)c2c[nH]c3ncc(-c4ccc(Cl)cc4)cc23)c1F [vemurafenib]	2	-3	-5	10	-2	-2	-13	6	10	-5	-1.59	3.16	73	-3.61	–
CC(=O)Nc1cccc(-n2c(=O)n(C3CC3)c(=O)c3c(Nc4ccc(I)cc4F)n(C)c(=O)c(C)c32)c1 [trametinib]	18	24	2.59	-1.8	-6.44	0.211	-5	-4	8	-1.35	-12	-2.65	-1.74	-5	–
